According to patent publication US20160235778A1, “COMPOSITIONS CONTAINING PUFA, URIDINE AND CHOLINE AND METHODS OF USE THEREOF” (MASSACHUSETTS INSTITUTE OF TECHNOLOGY, priority 2014, published 2016):

Assays:
brain phospholipids = test: Brain phospholipid levels in gerbils given UMP diet and/or PUFA by gavage; type: in vivo, gerbil; set-up: PC / PE / PS / PI: unit not given here
Description: Control standard diet (Table 4) consisted of Teklad Global 16% protein rodent diet (Harlan Teklad, Madison, Wis.), which contained 0.1% choline chloride (CC), corresponding to a daily dose of 50 mg/kg/day. UMP was provided as 0.5% UMP·2Na^+ weight/weight, added to the control diet, also prepared by Harlan Teklad, corresponding to 240 mg/kg/day UMP. DHA was administered as 300 mg/kg/day in 200 microliter (mcL)/day 5% Arabic Gum solution, while groups not receiving DHA were administered vehicle (5% Arabic Gum) alone. DHA was provided by Nu-Chek Prep (Elysian, MN) and UMP by Numico (Wagenigen, NL).
Gerbils were anesthetized with ketamine and xylazine (80 and 10 mg/kg bwt, i.p.) and sacrificed by immersing the head into liquid nitrogen for 2 min, followed by decapitation. Brains were immediately and quickly (30 seconds) removed using a bone rongeur and stored at −80° C.
Frozen brain hemispheres were weighed and homogenized in 100 volumes of ice-cold deionized water using a tissue degrader (Polytron PT 10-35, Kinematica AG, Switzerland), then analyzed as described in Example 1.
Protein in whole brain homogenate sample was measured for using bicinchoninic acid reagent (Perkin Elmer, Norwalk, Conn., USA). DNA was measured by measuring 460 nm emission of samples on a fluorometer in the presence of bisbenzimidizole, a fluorescent dye known as Hoechst H 33258 (American Hoechst Corporation), which has an excitation maximum at 356 nm and an emission maximum of 458 when bound to DNA.
Male gerbils weighing 80-100 g were divided into 4 groups of 8 gerbils and administered the supplements depicted in Table 1:
Adult gerbils were administered control standard diet (Table 4) with our without 0.5% UMP and/or 300 mg/kg/day DHA, EPA, or AA. Groups not receiving DHA were administered vehicle (5% Arabic Gum) alone.

[1] = tested on: hippocampal dendritic spines; test: Hippocampal dendritic spine numbers in pups of treated pregnant and nursing mothers; type: in vivo; details: rat pups, mothers treated 10 days before parturition and 20 days while nursing
From the text: In another study, pregnant rats were allowed to consume ad libitum, for 10 days before parturition and 20 days while nursing, either a choline-containing control diet or this diet supplemented with uridine as UMP; half of each group also received DHA or its diluent daily, by gavage. Pups were then sacrificed and brain slices were examined to determine numbers of hippocampal dendritic spines.

brain CDP-choline = test: Brain CDP-choline and CDP-ethanolamine levels (HPLC); type: in vivo; details: gerbil
Description: FIG. 5A-B. Effects of DHA on brain CDP-choline levels (FIG. 5A) and CDP-ethanolamine levels (FIG. 5B). Groups of 8 gerbils received either a control or a UMP-containing diet, and, by gavage, DHA (in a vehicle of 5% gum Arabic solution) or 5% gum Arabic solution alone for 28 days. On the 29th day brains were harvested and assayed for CDP-choline. Data are presented as means±SEM. Statistical analysis was performed using one- or two-way ANOVA followed by Tukey test. a: P<0.05 when compared with the values for control diet plus vehicle group; b: P<0.05 when compared with values for UMP diet plus vehicle group.
Aliquots (2 ml) of the upper (aqueous) phase were dried under a vacuum, reconstituted, and injected into an HPLC. The dried samples were reconstituted in 100-200 μl water and were analyzed by HPLC on an anion exchange column (Alltech Hypersil APS-2, […], 250×4.6 mm). CDP-choline was eluted with a linear gradient of buffers A (H3PO4, 1.75 mM, pH 2.9) and B (NaH2PO2, 500 mM, pH 4.5) from 0 to 100% B over period of 30 min. With this system, CDP-choline was resolved from closely co-eluting substances such as UMP in an isocratic system over a period of 40 min. The retention time for CDP-choline was 9.5 min. The column was washed with buffer B at the end of each experiment and every several days to remove retained nucleotides. Individual nucleotide peaks were detected by UV absorption at 280 nm and were identified by comparison with the positions of authentic standards, as well as by the addition of nucleotide standards to samples.

SHSY-5Y cells = test: 14C-choline incorporation into phospholipids in SHSY-5Y cells; type: cell-based, human
Description: SHSY-5Y cells were grown to near confluency in DMEM+10% FBS in 35 mm dishes. Cells were incubated for 18 hr in serum-free DMEM+1% FBS containing 30 μM choline+/−10 μM of DHA, arachidonic acid, or palmitic acid. Cells were then labeled, and labeled phospholipids were quantified as described for Example 1.
DHA was dissolved in ethanol to a […] concentration and frozen in 10 microliter aliquots at −80° C. For each experiment, one aliquot was diluted in ethanol to 10 micromolar; the volume giving the desired final solution in incubation medium was mixed with an equal volume of BSA solution (1 gm/ml).
The effect of arachidonic acid on phospholipid synthesis in SHSY-5Y cells was further characterized as described for omega-3 fatty acids and PC-12 cells in Example 2. […] Thus, omega-6 fatty acids stimulate synthesis of a variety of phospholipids in a dose-dependent manner.

[2] = gerbil brain, 3 weeks, 0.5% UMP and/or 300 mg/kg/day PUFA, Table 6
[3] = gerbil brain, 4 weeks, normalized to DNA levels, mean +/- SEM
[4] = gerbil brain, 4 weeks, normalized to protein levels, mean +/- SEM
[5] = gerbil brain, Table 5 part B, One week
[6] = gerbil brain, Table 5 part B, Three weeks
[7] = gerbil, Table 5A study, vs control

For `CCC=CCC=CCC=CCC=CCC=CCCCC(=O)O` [EPA, 5,8,11,14,17-eicosapentaenoic acid], the PC (brain phospholipids; [2]) was 125 ± 8, the PE (brain phospholipids; [2]) was 76 ± 4 and the PI (brain phospholipids; [2]) was 22 ± 2. The PS (brain phospholipids; [2]) was 31 ± 1, the SM (brain phospholipids; [2]) was 26 ± 3 and the “Total PL” value (brain phospholipids; [2]) was 347 ± 19. The “brain phospholipid levels, in words” value (brain phospholipids; gerbil, 3 weeks) was “increased phospholipid levels”.
In the case of `O=c1ccn([C@@H]2O[C@H](COP(=O)(O)O)[C@@H](O)[C@H]2O)c(=O)[nH]1` [UMP, uridine monophosphate], the “Increase over control (%)” value [1] is reported as 28%, the Number of spines [1] is reported as 68 and the PC (brain phospholipids; [2]) is reported as 131 ± 2. For the same molecule, the PE (brain phospholipids; [2]) was 70 ± 1, the PI (brain phospholipids; [2]) was 16 ± 1 and the PS (brain phospholipids; [2]) was 29 ± 1. For the same molecule, the SM (brain phospholipids; [2]) was 22 ± 1, the “Total PL” value (brain phospholipids; [2]) was 332 ± 5 and the PC (brain phospholipids; [3]) was 368 ± 10. It also gave a PE (brain phospholipids; [3]) of 195 ± 9, a PI (brain phospholipids; [3]) of 78 ± 6 and a PS (brain phospholipids; [3]) of 86 ± 7. The SM (brain phospholipids; [3]) was 111 ± 4, the “Total PL” value (brain phospholipids; [3]) was 878 ± 18 and the PC (brain phospholipids; [4]) was 171 ± 8. It also gave a PE (brain phospholipids; [4]) of 84 ± 8, a PI (brain phospholipids; [4]) of 31 ± 2 and a PS (brain phospholipids; [4]) of 35 ± 3. For the same molecule, the SM (brain phospholipids; [4]) was 52 ± 5, the “Total PL” value (brain phospholipids; [4]) was 367 ± 22 and the “increase in levels of total phospholipids” value (brain phospholipids; gerbil brain, 4 weeks, vs control group) was 5%. It also gave a PtdCho (brain phospholipids; gerbil brain, Table 5 part A) of 171 ± 8 nmol/mg prt, a PtdEtn (brain phospholipids; gerbil brain, Table 5 part A) of 64 ± 8 nmol/mg prt and a PtdIns (brain phospholipids; gerbil brain, Table 5 part A) of 31 ± 2 nmol/mg prt. The PtdSer (brain phospholipids; gerbil brain, Table 5 part A) was 35 ± 3 nmol/mg prt, the SM (brain phospholipids; gerbil brain, Table 5 part A) was 52 ± 5 nmol/mg prt and the “Total PL” value (brain phospholipids; gerbil brain, Table 5 part A) was 367 ± 22 nmol/mg prt. The PtdCho (brain phospholipids; [5]) was 154 ± 6 nmol/mg prt, the PtdEtn (brain phospholipids; [5]) was 63 ± 4 nmol/mg prt and the PtdIns (brain phospholipids; [5]) was 20 ± 4 nmol/mg prt. The PtdSer (brain phospholipids; [5]) was 39 ± 1 nmol/mg prt, the SM (brain phospholipids; [5]) was 49 ± 3 nmol/mg prt and the “Total PL” value (brain phospholipids; [5]) was 390 ± 21 nmol/mg prt. The PtdCho (brain phospholipids; [6]) was 199 ± 5 nmol/mg prt, the PtdEtn (brain phospholipids; [6]) was 87 ± 4 nmol/mg prt and the PtdIns (brain phospholipids; [6]) was 25 ± 1 nmol/mg prt. The PtdSer (brain phospholipids; [6]) was 42 ± 2 nmol/mg prt, the SM (brain phospholipids; [6]) was 70 ± 4 nmol/mg prt and the “Total PL” value (brain phospholipids; [6]) was 479 ± 6 nmol/mg prt. For the same molecule, the “effect on brain phospholipids after 1 week of treatment” value (brain phospholipids; gerbil, 1 week) was “no significant effects”, the “increase in brain level of PC” value (brain phospholipids; [7]) was 13% and the “increase in brain level of PE” value (brain phospholipids; [7]) was 29%. For the same molecule, the “increase in brain level of PI” value (brain phospholipids; [7]) was 48%, the “increases in brain phospholipids, in words” value (brain phospholipids; gerbil, treatment for 3 weeks) was “smaller but still significant increases” and the “brain CDP-choline levels, in words” value (brain CDP-choline; FIG. 5A) was “decreased”. For the same molecule, the “brain CDP-ethanolamine levels, in words” value (brain CDP-choline; FIG. 5B) was “decreased”.
With `CCCCCC=CCC=CCC=CCC=CCCCC(=O)O` [arachidonic acid, 5,8,11,14-eicosatetraenoic acid] the “brain phospholipid levels, in words” value (brain phospholipids; gerbil, 3 weeks) was “increased phospholipid levels”, the phospholipid synthesis (SHSY-5Y cells; 18 h with 10 μM fatty acid, FIG. 3A) was “enhanced” and the “synthesis of total phospholipids, PC and phosphatidylethanolamine” value (SHSY-5Y cells; range of dosages, dose-dependent, FIG. 3B) was “increased synthesis”.
